Drawing on patent US20240270741A1 (Cogent Biosciences, Inc., priority 2023, published 2024), this text covers IC50 for 21 compounds.

In the first assay the target is FGFR2 (Homo sapiens, UniProt P21802). Briefly: FGFR wild type enzyme assay (HTRF KinEASE-TK), FGFR2. The conditions noted are these: Enz FGFR2 (nM).
Chain of FGFR2 (P21802 399-821 limits assumed): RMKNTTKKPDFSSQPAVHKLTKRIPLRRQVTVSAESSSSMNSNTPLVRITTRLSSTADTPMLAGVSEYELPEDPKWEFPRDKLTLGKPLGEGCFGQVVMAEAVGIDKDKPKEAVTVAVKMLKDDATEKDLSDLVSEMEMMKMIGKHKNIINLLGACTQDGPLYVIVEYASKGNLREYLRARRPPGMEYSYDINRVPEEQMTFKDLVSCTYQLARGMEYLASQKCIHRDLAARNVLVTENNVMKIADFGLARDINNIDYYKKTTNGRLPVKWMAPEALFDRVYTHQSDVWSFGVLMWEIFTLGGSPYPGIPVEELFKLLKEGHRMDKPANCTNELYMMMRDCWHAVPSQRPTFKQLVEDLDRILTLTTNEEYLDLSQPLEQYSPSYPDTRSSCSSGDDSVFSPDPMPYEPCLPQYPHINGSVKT
Turning to `CN1CCC[C@H]1C(=O)N1CCC(n2cc(-c3cc(Sc4ncccc4F)c4c(C#N)cnn4c3)cn2)CC1` [Example 126, 4-[(3-fluoro-2-pyridyl)sulfanyl]-6-[1-[1-[(2S)-1-methylpyrrolidine-2-carbonyl]-4-piperidyl]pyrazol-4-yl]pyrazolo[1,5-a]pyridine-3-carbonitrile], the IC50 was found to be 1 nM. That is a single-digit nanomolar value.
Regarding `CC(C)N1CCC(n2cc(-c3cc(Sc4ccccn4)c4c(C#N)cnn4c3)cn2)CC1` [Example 92, 6-[1-(1-isopropyl-4-piperidyl)pyrazol-4-yl]-4-(2-pyridylsulfanyl)pyrazolo[1,5-a]pyridine-3-carbonitrile], the IC50 was found to be 3 nM.

Still in this assay, the particulars now being: Enz FGFR2 (nM), FGFR2 wild type enzyme.
`CC(=O)N1CCO[C@H](Cn2ncc(-c3cc(Sc4ncccc4F)c4c(C#N)cnn4c3)c2C)C1` [Example 234, (S)-6-(1-((4-acetylmorpholin-2-yl)methyl)-5-methyl-1H-pyrazol-4-yl)-4-((3-fluoropyridin-2-yl)thio)pyrazolo[1,5-a]pyridine-3-carbonitrile] yielded an IC50 of 5 nM.
`Cc1c(-c2cc(Sc3ncccc3F)c3c(C#N)cnn3c2)cnn1C1CCN([C@@H](C)CO)CC1` [Example 146, (S)-4-((3-fluoropyridin-2-yl)thio)-6-(1-(1-(1-hydroxypropan-2-yl)piperidin-4-yl)-5-methyl-1H-pyrazol-4-yl)pyrazolo[1,5-a]pyridine-3-carbonitrile] returned an IC50 of 2 nM. This IC50 lies about 2.5-fold lower than the previous one.
On the same count and under the same terms, then `Cc1nn(C2CCN(C)CC2)c(C)c1-c1cc(Sc2ccccc2C#N)c2c(C#N)cnn2c1` [Example 305, 4-((2-cyanophenyl)thio)-6-(3,5-dimethyl-1-(1-methylpiperidin-4-yl)-1H-pyrazol-4-yl)pyrazolo[1,5-a]pyridine-3-carbonitrile], with 5 nM.
As to `Cc1c(-c2cc(Sc3ccc(F)cn3)c3c(C#N)cnn3c2)cnn1[C@H]1C[C@H]2CC[C@@H](C1)N2C(=O)CO` [Example 309, 4-((5-fluoropyridin-2-yl)thio)-6-(1-((1R,3r,5S)-8-(2-hydroxyacetyl)-8-azabicyclo[3.2.1]octan-3-yl)-5-methyl-1H-pyrazol-4-yl)pyrazolo[1,5-a]pyridine-3-carbonitrile], inhibition was half-maximal at 6 nM (IC50). The IC50 values of the last two compounds are within 1.5-fold of each other.
The same measure, in the same setting: for `CO[C@@H](C)CN1CCC(n2ncc(-c3cc(Sc4ccccc4C#N)c4c(C#N)cnn4c3)c2C)CC1` [Example 157, (S)-4-((2-cyanophenyl)thio)-6-(1-(1-(2-methoxypropyl)piperidin-4-yl)-5-methyl-1H-pyrazol-4-yl)pyrazolo[1,5-a]pyridine-3-carbonitrile] the value was 1 nM.

The assay is the same for the next values; noted with them: Enz FGFR2 (nM), FGFR2 wild type enzyme assay.
`CN1CCN(c2ccc(-c3cc(Sc4ccccc4C#N)c4c(C#N)cnn4c3)cc2)CC1` [Example 469, 4-((2-cyanophenyl)thio)-6-(4-(4-methylpiperazin-1-yl)phenyl)pyrazolo[1,5-a]pyridin-3-carbonitrile] displayed a concentration for half-maximal inhibition (IC50) of 0.2 nM. In other words, the sub-nanomolar range.
On the same count and under the same terms, then `CC1(C)C[C@H](n2cc(-c3cc(Sc4ccccc4C#N)c4c(C#N)cnn4c3)cn2)CN1` [Example 472, (S)-4-((2-cyanophenyl)thio)-6-(1-(5,5-dimethylpyrrolidin-3-yl)-1H-pyrazol-4-yl)pyrazolo[1,5-a]pyridine-3-carbonitrile], with 0.3 nM; and `Cn1ncc(-c2cc(Sc3ccccc3C#N)c3c(C#N)cnn3c2)c1N` [Example 608, 6-(5-amino-1-methyl-1H-pyrazol-4-yl)-4-((2-cyanophenyl)thio)pyrazolo [1,5-a]pyridine-3-carbonitrile], with 2 nM.
Same read-out and setting: for `N#Cc1ccccc1Sc1cc(-c2cnn([C@@H]3CCCN(CCO)C3)c2)cn2ncc(C#N)c12` [Example 534, (R)-4-((2-cyanophenyl)thio)-6-(1-(1-(2-hydroxyethyl)piperidin-3-yl)-1H-pyrazol-4-yl)pyrazolo[1,5-a]pyridine-3-carbonitrile] the value was 0.5 nM; for `Cc1c(-c2cc(Sc3ncc(F)cc3F)c3c(C#N)cnn3c2)cnn1[C@H]1CCCN(C)C1` [Example 346, (S)-4-((3,5-difluoropyridin-2-yl)thio)-6-(5-methyl-1-(1-methylpiperidin-3-yl)-1H-pyrazol-4-yl)pyrazolo[1,5-a]pyridine-3-carbonitrile], 5 nM.
Still for that read-out and setting: for `N#Cc1cnn2cc(-c3ccc(N4CCCC4)nc3)cc(Sc3ncccc3F)c12` [Example 554, 4-((3-fluoropyridin-2-yl)thio)-6-(6-(pyrrolidin-1-yl)pyridin-3-yl)pyrazolo[1,5-a]pyridine-3-carbonitrile] the value was 2 nM; for `Cc1c(-c2cc(Sc3ncc(F)cc3F)c3c(C#N)cnn3c2)cnn1[C@H]1CC[C@@H](NC(=O)CO)CC1` [Example 344, N-((1s,4s)-4-(4-(3-cyano-4-((3,5-difluoropyridin-2-yl)thio)pyrazolo[1,5-a]pyridin-6-yl)-5-methyl-1H-pyrazol-1-yl)cyclohexyl)-2-hydroxyacetamide], 3 nM.
In turn, `CC(=O)N1CCC(n2ncc(-c3cc(Sc4ncccc4F)c4c(C#N)cnn4c3)c2F)CC1` [Example 397, 6-(1-(1-acetylpiperidin-4-yl)-5-fluoro-1H-pyrazol-4-yl)-4-((3-fluoropyridin-2-yl)thio)pyrazolo[1,5-a]pyridine-3-carbonitrile] gave an IC50 of 5 nM.
Still for that read-out and setting: then `CC(=O)N[C@H]1CC[C@@H](n2ncc(-c3cc(Sc4nc(F)ccc4F)c4c(C#N)cnn4c3)c2C)CC1` [Example 384, N-((1s,4s)-4-(4-(3-cyano-4-((3,6-difluoropyridin-2-y)thio)pyrazolo[1,5-a]pyridin-6-yl)-5-methyl-1H-pyrazol-1-yl)cyclohexyl)acetamide], with 1 nM; and `Cc1c(-c2cc(Sc3ccc(F)cc3C#N)c3c(C#N)cnn3c2)cnn1CCO` [Example 511, 4-((2-cyano-4-fluorophenyl)thio)-6-(1-(2-hydroxyethyl)-5-methyl-1H-pyrazol-4-yl)pyrazolo[1,5-a]pyridine-3-carbonitrile], with 8 nM.
In the case of `Cc1c(-c2cc(Sc3ccc(F)cc3C#N)c3c(C#N)cnn3c2)cnn1C1CCC(C)(C)NC1` (stereo in doubt) [Example 529, 4-(2-cyano-4-fluoro-phenyl)sulfanyl-6-[1-[(3R)-6,6-dimethyl-3-piperidyl]-5-methyl-pyrazol-4-yl]pyrazolo[1,5-a]pyridine-3-carbonitrile], the IC50 worked out at 1 nM. Compared with the last compound, the IC50 is about 8-fold lower.
Same read-out and setting: then `N#Cc1cnn2cc(-c3ccc(N4C[C@@H](O)[C@@H](O)C4)nc3)cc(Sc3ncccc3F)c12` [Example 661, 6-(6-((3R,4S)-3,4-dihydroxypyrrolidin-1-yl)pyridin-3-yl)-4-((3-fluoropyridin-2-yl)thio)pyrazolo[1,5-a]pyridine-3-carbonitrile], with 2 nM; and `N#Cc1ccccc1Sc1cc(-c2cnn(CC(F)F)c2)cn2ncc(C#N)c12` [Example 613, 4-((2-cyanophenyl)thio)-6-(1-(2,2-difluoroethyl)-1H-pyrazol-4-yl)pyrazolo[1,5-a]pyridine-3-carbonitrile], with 1 nM.
Still for that read-out and setting: for `Cc1c(-c2cc(Sc3ccc(F)cc3C#N)c3c(C#N)cnn3c2)cnn1[C@@H]1C[C@H]2CC[C@@H](C1)N2` [Example 366, 6-(1-((1R,3s,5S)-8-azabicyclo[3.2.1]octan-3-yl)-5-methyl-1H-pyrazol-4-yl)-4-((2-cyano-4-fluorophenyl)thio)pyrazolo [1,5-a]pyridine-3-carbonitrile] the value was 0.6 nM.
